Patent US20250197372A1 (priority 2020, published 2025)

Legend:
[1] = target: rat sucrase (partially purified alpha-glucosidase from intestinal rat powder) (Rattus norvegicus, UniProt P23739); assay: Intestinal alpha-glucosidase assay, sucrose substrate (Glucose GO Kit); assay type: biochemical
Method in brief: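 Partially purified alpha-glucosidase from rat intestinal powder was preincubated 60 min at 37 °C with serial compound dilutions, then given maltose or sucrose and incubated 30 min at 37 °C.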

[2] = target: T1, recombinant human GBA (beta-glucocerebrosidase) (Homo sapiens, UniProt P04062); assay: Beta-glucocerebrosidase (GBA, glucosylceramidase) assay (4-methylumbelliferyl-beta-D-pyranoside substrate, fluorescence); assay type: biochemical
T1 sequence (P04062 40-536): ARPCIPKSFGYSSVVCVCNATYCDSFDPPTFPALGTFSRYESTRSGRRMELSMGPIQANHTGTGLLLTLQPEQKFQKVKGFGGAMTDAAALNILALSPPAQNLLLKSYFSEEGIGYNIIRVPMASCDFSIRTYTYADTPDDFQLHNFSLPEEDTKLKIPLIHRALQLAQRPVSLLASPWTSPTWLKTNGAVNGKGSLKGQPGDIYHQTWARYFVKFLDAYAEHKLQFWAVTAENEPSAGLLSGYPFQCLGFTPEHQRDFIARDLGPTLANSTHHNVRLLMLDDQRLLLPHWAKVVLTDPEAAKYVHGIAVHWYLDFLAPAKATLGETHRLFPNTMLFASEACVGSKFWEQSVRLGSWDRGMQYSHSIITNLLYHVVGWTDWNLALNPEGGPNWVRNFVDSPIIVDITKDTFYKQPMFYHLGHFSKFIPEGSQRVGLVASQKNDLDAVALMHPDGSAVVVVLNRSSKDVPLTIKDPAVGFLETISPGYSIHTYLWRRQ
Method in brief: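 IC50 by four-parameter fit of percent inhibition, with product fluorescence (365/440 nm) read after a glycine/NaOH pH 10 stop. Compound and commercial recombinant human enzyme were incubated 60 min at 37 °C before a further 60 min at 37 °C with 4-methylumbelliferyl-beta-D-pyranoside substrate.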

Sequence of rat sucrase (partially purified alpha-glucosidase from intestinal rat powder) (P23739 whole entry): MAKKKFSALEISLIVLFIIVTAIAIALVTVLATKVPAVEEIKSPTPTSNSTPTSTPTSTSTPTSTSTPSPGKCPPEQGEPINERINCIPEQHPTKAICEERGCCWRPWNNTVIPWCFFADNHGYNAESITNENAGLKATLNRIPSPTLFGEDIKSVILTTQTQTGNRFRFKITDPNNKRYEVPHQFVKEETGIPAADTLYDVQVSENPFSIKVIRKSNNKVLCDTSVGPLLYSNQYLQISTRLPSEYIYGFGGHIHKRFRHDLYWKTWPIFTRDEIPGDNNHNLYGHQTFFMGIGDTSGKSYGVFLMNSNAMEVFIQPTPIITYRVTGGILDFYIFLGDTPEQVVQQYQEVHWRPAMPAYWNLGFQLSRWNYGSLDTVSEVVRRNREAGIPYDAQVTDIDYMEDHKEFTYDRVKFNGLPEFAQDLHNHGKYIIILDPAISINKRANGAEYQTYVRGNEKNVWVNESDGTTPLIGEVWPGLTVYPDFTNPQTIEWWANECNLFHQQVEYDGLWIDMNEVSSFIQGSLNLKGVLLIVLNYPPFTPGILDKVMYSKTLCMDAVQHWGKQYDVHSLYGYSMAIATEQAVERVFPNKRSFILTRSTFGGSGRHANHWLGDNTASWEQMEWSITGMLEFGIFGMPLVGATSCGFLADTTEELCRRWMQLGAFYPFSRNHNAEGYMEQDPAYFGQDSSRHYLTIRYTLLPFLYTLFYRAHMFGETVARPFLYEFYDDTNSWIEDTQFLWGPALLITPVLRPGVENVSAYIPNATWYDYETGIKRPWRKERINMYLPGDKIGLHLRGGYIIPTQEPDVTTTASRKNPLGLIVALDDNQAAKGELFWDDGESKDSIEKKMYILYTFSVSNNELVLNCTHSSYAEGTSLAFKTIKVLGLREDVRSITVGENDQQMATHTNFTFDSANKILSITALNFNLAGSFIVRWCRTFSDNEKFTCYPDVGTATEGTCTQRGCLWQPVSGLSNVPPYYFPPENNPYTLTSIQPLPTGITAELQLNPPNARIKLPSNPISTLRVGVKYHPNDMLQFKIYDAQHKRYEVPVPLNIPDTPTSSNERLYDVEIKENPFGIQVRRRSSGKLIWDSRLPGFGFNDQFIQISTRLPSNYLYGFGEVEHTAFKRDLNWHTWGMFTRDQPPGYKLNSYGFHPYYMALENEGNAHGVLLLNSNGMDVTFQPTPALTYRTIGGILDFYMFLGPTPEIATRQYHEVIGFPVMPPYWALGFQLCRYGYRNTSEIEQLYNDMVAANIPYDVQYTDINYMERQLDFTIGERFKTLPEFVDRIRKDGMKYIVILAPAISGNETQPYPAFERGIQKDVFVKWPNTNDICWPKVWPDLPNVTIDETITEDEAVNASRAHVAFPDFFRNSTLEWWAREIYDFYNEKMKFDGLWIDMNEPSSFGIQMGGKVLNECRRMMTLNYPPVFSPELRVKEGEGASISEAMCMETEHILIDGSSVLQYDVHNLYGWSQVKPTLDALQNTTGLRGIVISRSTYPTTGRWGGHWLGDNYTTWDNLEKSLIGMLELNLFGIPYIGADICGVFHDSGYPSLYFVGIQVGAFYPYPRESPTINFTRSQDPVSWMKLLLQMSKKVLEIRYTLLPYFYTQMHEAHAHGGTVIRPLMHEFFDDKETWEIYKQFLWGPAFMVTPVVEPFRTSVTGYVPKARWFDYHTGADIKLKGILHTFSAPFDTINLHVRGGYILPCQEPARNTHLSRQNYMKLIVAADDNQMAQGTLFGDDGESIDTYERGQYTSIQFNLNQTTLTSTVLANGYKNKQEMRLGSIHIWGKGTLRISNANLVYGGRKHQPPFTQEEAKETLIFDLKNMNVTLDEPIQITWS

Compound	IC50 [1] [µM]	IC50 [2] [µM]
COc1cc(-c2cnccn2)ccc1NCCCCCCN1C[C@H](O)[C@@H](O)[C@H](O)[C@H]1CO [Compound 1199, (2R,3R,4R,5S)-2-(hydroxymethyl)-1-(6-{[2-methoxy-4-(pyrazin-2-yl)phenyl]amino}hexyl)piperidine-3,4,5-triol]	0.016	3.96
[N-]=[N+]=Nc1ccc(NCCc2ccc(CCN3C[C@H](O)[C@@H](O)[C@H](O)[C@H]3CO)cc2)c([N+](=O)[O-])c1 [Compound 1200, (2R,3R,4R,5S)-1-[2-(4-{2-[(4-azido-2-nitrophenyl)amino]ethyl}phenyl)ethyl]-2-(hydroxymethyl)piperidine-3,4,5-triol]	0.746	1.45
OC[C@@H]1[C@@H](O)[C@H](O)[C@@H](O)CN1CCCCCCNc1ccc(-c2cccnn2)cc1Cl [Compound 1202, (2R,3R,4R,5S)-1-(6-{[2-chloro-4-(pyridazin-3-yl)phenyl]amino}hexyl)-2-(hydroxymethyl)piperidine-3,4,5-triol]	< 0.001	3.01
OC[C@@H]1[C@@H](O)[C@H](O)[C@@H](O)CN1CCCCCCNc1ccc(-c2ncco2)cc1Cl [Compound 1203, (2R,3R,4R,5S)-1-(6-{[2-chloro-4-(1,3-oxazol-2-yl)phenyl]amino}hexyl)-2-(hydroxymethyl)piperidine-3,4,5-triol]	0.011	0.787
COc1cc(-c2ncco2)ccc1NCCCCCCN1C[C@H](O)[C@@H](O)[C@H](O)[C@H]1CO [Compound 1207, (2R,3R,4R,5S)-2-(hydroxymethyl)-1-(6-{[2-methoxy-4-(1,3-oxazol-2-yl)phenyl]amino}hexyl)piperidine-3,4,5-triol]	0.071	1.68
[N-]=[N+]=Nc1ccc(NCC/C=C/CCN2C[C@H](O)[C@@H](O)[C@H](O)[C@H]2CO)c([N+](=O)[O-])c1 [Compound 1260, (2R,3R,4R,5S)-1-[(3E)-6-[(4-azido-2-nitrophenyl)amino]hex-3-en-1-yl]-2-(hydroxymethyl)piperidine-3,4,5-triol]	0.029	1.56
O=[N+]([O-])c1cc(CCO)ccc1NCCCCCCN1C[C@H](O)[C@@H](O)[C@H](O)[C@H]1CO [Compound 1292, (2R,3R,4R,5S)-1-(6-{[4-(2-hydroxyethyl)-2-nitrophenyl]amino}hexyl)-2-(hydroxymethyl)piperidine-3,4,5-triol]	0.04	1.6
CS(=O)(=O)Nc1ccc(NCCCCCCN2C[C@H](O)[C@@H](O)[C@H](O)[C@H]2CO)c([N+](=O)[O-])c1 [Compound 1300, N-[3-nitro-4-({6-[(2R,3R,4R,5S)-3,4,5-trihydroxy-2-(hydroxy-methyl)piperidin-1-yl]hexyl}amino)phenyl]methanesulfonamide]	0.052	0.026
COCCc1ccc(CCCCCN2C[C@H](O)[C@@H](O)[C@H](O)[C@H]2CO)cc1 [Compound 1307, (2R,3R,4R,5S)-2-(hydroxymethyl)-1-{5-[4-(2-methoxyethyl)phenyl]pentyl}piperidine-3,4,5-triol]	0.387	5
Cc1cc(-c2ccco2)ccc1NCc1ccc(CN2C[C@H](O)[C@@H](O)[C@H](O)[C@H]2CO)cc1 [Compound 1324, (2R,3R,4R,5S)-1-{[4-({[4-(furan-2-yl)-2-methylphenyl]amino}methyl)phenyl]methyl}-2-(hydroxymethyl)piperidine-3,4,5-triol]	< 0.001	33.7
Cc1cc(NCc2cccc(CN3C[C@H](O)[C@@H](O)[C@H](O)[C@H]3CO)n2)cc(-c2ccc[nH]2)c1 [Compound 1335, (2R,3R,4R,5S)-2-(hydroxymethyl)-1-{[6-({[3-methyl-5-(1H-pyrrol-2-yl)phenyl]amino}methyl)pyridin-2-yl]methyl}piperidine-3,4,5-triol]	0.321	21.5
Cc1nc2cc(-c3ncccn3)ccc2n1CCCCCCN1C[C@H](O)[C@@H](O)[C@H](O)[C@H]1CO [Compound 1339, (2R,3R,4R,5S)-2-(hydroxymethyl)-1-{6-[2-methyl-5-(pyrimidin-2-yl)-1H-1,3-benzodiazol-1-yl]hexyl}piperidine-3,4,5-triol]	0.049	0.626
